Experimental data from US12115208B2, “Small-molecule adjuvants for antibiotics to address antibiotic resistance” (HIGH POINT UNIVERSITY, priority 2017, dated 2024).
Where two headings read alike, the source gives them in different places. Each block holds one molecule with its values, some of them ahead of it.

Key:
[1] = test system: S. aureus NR-49120 (VRSA); experiment: Antibiotic repotentiation (antibiotic MIC with/without compound); type: cell-based, Staphylococcus aureus; conditions: VRSA NR-49120; for Fold Reduction: antibiotic MIC
Procedure: (§1) The overnight culture was diluted into fresh CAMHB to a concentration of 5×10^5 CFU/ml. […] On the same plate, a standard microdilution MIC with the tested antibiotics and no added compound was also performed to compare the antibiotic MIC in the presence and absence of compound. […] Fold reductions were calculated by dividing the MIC of the antibiotic without compound by the MIC of the antibiotic in the presence of compound.

S. aureus USA100 (MRSA) [2] = experiment: as above; type: cell-based, Staphylococcus aureus
Procedure: as §1

S. aureus USA300 (MRSA) [3] = experiment: as above; type: cell-based, Staphylococcus aureus; conditions: for MIC of antibiotic: MRSA USA300; for Oxacillin MIC / Fold Reduction: +50 μM compound, S. aureus USA300 (MRSA); for Fold Reduction: oxacillin MIC
Procedure: as §1
(§2) The compounds were then analyzed for antibiotic repotentiation activity. […] The tested strains included USA300, which is a common and particularly virulent strain of community-acquired MRSA.

S. aureus 43300 (MRSA) = experiment: as above; type: cell-based, Staphylococcus aureus
Procedure: as §1, §2

S. aureus USA300 (MRSA) [4] = experiment: Minimum inhibitory concentration, broth microdilution; type: cell-based, Staphylococcus aureus; conditions: compound alone, S. aureus USA300 (MRSA), CAMHB, 18 h, read-out: MIC
Procedure: as §2

[5] = test system: S. aureus ATCC 43300 (MRSA); experiment: as above; type: cell-based, Staphylococcus aureus; conditions: compound alone, S. aureus ATCC 43300 (MRSA), CAMHB, 18 h, read-out: MIC
Procedure: as §2

S. epidermidis 49461 = experiment: Antibiotic repotentiation (oxacillin MIC with/without compound); type: cell-based, Staphylococcus epidermidis; conditions: +75 μM compound; S. epidermidis 49461
Procedure: as §1
Antibiotic potentiation in S. epidermidis was also investigated.

S. aureus ATCC 29213 = experiment: Minimum inhibitory concentration, broth microdilution; type: cell-based; conditions: Staphylococcus aureus, ATCC29213; compound alone; S. aureus ATCC 29213; CAMHB, 18 h; read-out: MIC
Procedure: as §2

MRSA 43300 biofilm = experiment: Biofilm inhibition, crystal violet assay; type: cell-based, Staphylococcus aureus; conditions: 30 h
Procedure: (§3) A standard static crystal violet assay was used to quantify biofilm inhibition.^45 Cultures of S. aureus or S. epidermidis were grown overnight in TSBG (tryptic soy broth with 5% glucose) at 37° C. with shaking. These cultures were used to inoculate fresh TSBG to a calculated optical density of 0.01 at 600 nm (OD600). […] Untreated aliquots were used as a positive control and water served as a negative control. 100 μl of these suspensions were added to the wells of a 96-well polyvinylchloride microtiter plate. […] After incubation, media was discarded and the plates were washed with water to remove non-adherent cells. Adherent biofilms were stained with 110 μl of crystal violet (0.1% in water) and incubated at room temperature for thirty minutes. The crystal violet staining solution was discarded and plates were washed with water to remove excess stain. The resulting stained biofilms were solubilized with 200 μL of 95% ethanol for 10 minutes. 125 μl of the ethanol solutions were transferred to a clear polystyrene microtiter plate for evaluation. Absorbance at 540 nm was recorded using a BioTek Synergy H1 microplate reader. The absorbance of the negative control lanes was subtracted from the experimental values to account for background staining. Percent inhibition was calculated by comparison of the absorbance values of control versus treated wells under identical conditions.
Antibiotic resistance and biofilm formation share similar regulatory mechanisms. […] Biofilm inhibition was first assessed in S. aureus 43300, a methicillin-resistant strain (see Table 18). As described in Materials and Methods, a standard crystal violet assay was used to assess biofilm inhibition by the tested compounds. The IC50 is described as the compound concentration required to inhibit 50% of biofilm formation. The standard deviation is calculated from at least 3 independent experiments.

[6] = test system: S. epidermidis ATCC 49461 biofilm; experiment: Biofilm inhibition, crystal violet assay; type: cell-based, Staphylococcus epidermidis; conditions: 30 h, read-out: Inhibition of biofilm formation IC50
Procedure: as §3

S. aureus USA100 (MRSA) [7] = experiment: microbe, parasite or virus in culture; type: cell-based, Staphylococcus aureus; conditions: compound alone, CAMHB, 18 h
[8] = oxacillin MIC, +50 μM compound, S. aureus 43300 (MRSA)
[9] = +50 μM compound, S. aureus USA100 (MRSA)
[10] = oxacillin MIC, +50 μM compound, S. aureus USA100 (MRSA)
[11] = +50 μM compound, S. aureus 43300 (MRSA)

Structure (SMILES): Cc1nnc(SCC2=C(C(=O)O)N3C(=O)[C@@H](NC(=O)Cn4cnnn4)[C@H]3SC2)s1 [Cefazolin]
MIC of antibiotic ([1]; +Loratadine 25 μM): 32 µg/mL | MIC of antibiotic ([1]; +Loratadine 50 μM): 8 µg/mL | Fold Reduction ([1]; +Loratadine 25 μM): 4 | Fold Reduction ([1]; +Loratadine 50 μM): 16 | MIC of antibiotic ([1]; antibiotic alone): 128 µg/mL | MIC of antibiotic (S. aureus USA100 (MRSA) [2]; +Loratadine 25 μM, MRSA USA100): 128 µg/mL | MIC of antibiotic (S. aureus USA100 (MRSA) [2]; +Loratadine 50 μM, MRSA USA100): 1 µg/mL | Fold Reduction (S. aureus USA100 (MRSA) [2]; antibiotic MIC, +Loratadine 25 μM, MRSA USA100): 2 | Fold Reduction (S. aureus USA100 (MRSA) [2]; antibiotic MIC, +Loratadine 50 μM, MRSA USA100): 256 | MIC of antibiotic (S. aureus USA100 (MRSA) [2]; antibiotic alone, MRSA USA100): 256 µg/mL | MIC of antibiotic (S. aureus USA300 (MRSA) [3]; +Loratadine 25 μM): 4 µg/mL | MIC of antibiotic (S. aureus USA300 (MRSA) [3]; +Loratadine 50 μM): 1 µg/mL | MIC of antibiotic (S. aureus USA300 (MRSA) [3]; antibiotic alone): 32 µg/mL | MIC of antibiotic (S. aureus 43300 (MRSA); +Amoxapine (150 μM), S. aureus 43300 (MRSA)): 0.5 µg/mL | MIC of antibiotic (S. aureus 43300 (MRSA); +Loratadine 25 μM, MRSA 43300): 16 µg/mL | MIC of antibiotic (S. aureus 43300 (MRSA); +Loratadine 50 μM, MRSA 43300): 1 µg/mL | Fold Reduction (S. aureus 43300 (MRSA); antibiotic MIC, +Amoxapine (150 μM), S. aureus 43300 (MRSA)): 32 | Fold Reduction (S. aureus 43300 (MRSA); antibiotic MIC, +Loratadine 25 μM, MRSA 43300): 4 | Fold Reduction (S. aureus 43300 (MRSA); antibiotic MIC, +Loratadine 50 μM, MRSA 43300): 64 | MIC of antibiotic (S. aureus 43300 (MRSA); antibiotic alone, no compound, S. aureus 43300 (MRSA)): 16 µg/mL | MIC of antibiotic (S. aureus 43300 (MRSA); antibiotic alone, S. aureus ATCC 43300 (MRSA)): 64 µg/mL

Structure (SMILES): c1ccc2c(c1)[nH]c1ccccc12 [IV-1]
MIC (S. aureus USA300 (MRSA) [4]): >200 µM | MIC [5]: >200 µM | Oxacillin MIC (S. aureus USA100 (MRSA) [2]; [9]): 512 µg/mL | Fold Reduction (S. aureus USA100 (MRSA) [2]; [10]): 1 | Oxacillin MIC (S. aureus USA300 (MRSA) [3]): 64 µg/mL | Fold Reduction (S. aureus USA300 (MRSA) [3]): 1 | Oxacillin MIC (S. aureus 43300 (MRSA); [11]): 32 µg/mL | Fold Reduction (S. aureus 43300 (MRSA); [8]): 1 | MIC (S. aureus USA100 (MRSA) [7]): >200 µM

Structure (SMILES): Brc1cccc2c1[nH]c1ccccc12 [IV-2]
MIC (S. aureus USA300 (MRSA) [4]): >200 µM | MIC [5]: >200 µM | Oxacillin MIC (S. aureus USA100 (MRSA) [2]; [9]): 8 µg/mL | Fold Reduction (S. aureus USA100 (MRSA) [2]; [10]): 64 | Oxacillin MIC (S. aureus USA300 (MRSA) [3]): 16/8 | Fold Reduction (S. aureus USA300 (MRSA) [3]): 4/8 | Oxacillin MIC (S. aureus 43300 (MRSA); [11]): 4 µg/mL | Fold Reduction (S. aureus 43300 (MRSA); [8]): 8 | MIC (S. aureus USA100 (MRSA) [7]): >200 µM

The next lines start with results.

MIC (S. aureus USA300 (MRSA) [4]; Staphylococcus aureus): 600 µM | MIC ([5]; Staphylococcus aureus): 600 µM | Oxacillin MIC (S. epidermidis 49461): 16 µg/mL | MIC (S. aureus ATCC 29213): 1200 µM
Structure (SMILES): CN1CCN(C2=Nc3cc(Cl)ccc3Nc3ccccc32)CC1 [Clozapine, 8-chloro-11-(4-methyl-1-piperazinyl)-5H-dibenzo[b,e][1,4]diazepine, reference compound]

IC50 (MRSA 43300 biofilm; Staphylococcus aureus, MRSA): 18.7 µM
Structure (SMILES): Clc1ccc2c(c1)Nc1ccccc1CC2 [Compound I-5, 3-chloro-10,11-dihydro-5H-dibenzo[b,f]azepine]
Fold Reduction (S. aureus 43300 (MRSA); [8]): 16

MIC [5]: 125 µM | IC50 (MRSA 43300 biofilm): 184 µM | IC50 [6]: 57.1 µM | Oxacillin MIC (S. aureus 43300 (MRSA); +31.25 μM compound, S. aureus 43300 (MRSA)): 4 µg/mL
Structure (SMILES): Clc1cc2cccnc2c2ncccc12 [Compound V-6]
Fold Reduction (S. aureus 43300 (MRSA); oxacillin MIC, +31.25 μM compound, S. aureus 43300 (MRSA)): 8
